Measurements: ChEMBL document CHEMBL1152277, “Lead optimization of 4-acetylamino-2-(3,5-dimethylpyrazol-1-yl)-6-pyridylpyrimidines as A2A adenosine receptor antagonists for the treatment of Parkinson's disease” (J Med Chem, 2008)
≈ marks a conversion by molar mass, not a printed value. Calls of active or inactive are those of the source. The calls are words filed in the database; no cut-off is given here.

Columns and labels:
[1] = Metabolic stability in human liver microsomes assessed as intrinsic clearance by LC-MS/MS analysis; format: ADME, Microsome
Homo sapiens = species: Homo sapiens; assay: Selectivity ratio of Ki for human adenosine A1 receptor to Ki for human adenosine A2A receptor
Cytochrome P450 3A4 [2] = target: T1, Cytochrome P450 3A4 (Homo sapiens, UniProt P08684)
T1 sequence (P08684 whole entry): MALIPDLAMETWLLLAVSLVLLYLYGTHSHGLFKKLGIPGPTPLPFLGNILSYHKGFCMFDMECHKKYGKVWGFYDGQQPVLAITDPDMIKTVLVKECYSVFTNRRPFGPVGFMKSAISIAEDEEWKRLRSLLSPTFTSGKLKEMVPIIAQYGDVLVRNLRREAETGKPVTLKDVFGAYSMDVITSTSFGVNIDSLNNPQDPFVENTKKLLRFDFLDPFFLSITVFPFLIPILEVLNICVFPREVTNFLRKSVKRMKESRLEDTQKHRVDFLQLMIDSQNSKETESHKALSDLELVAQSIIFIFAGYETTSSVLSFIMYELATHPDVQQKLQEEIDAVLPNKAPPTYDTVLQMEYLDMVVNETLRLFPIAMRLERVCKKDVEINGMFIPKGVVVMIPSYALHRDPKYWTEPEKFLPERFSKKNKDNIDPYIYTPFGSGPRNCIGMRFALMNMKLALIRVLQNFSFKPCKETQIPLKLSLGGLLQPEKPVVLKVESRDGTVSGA
Description: Inhibition of CYP3A4 in human liver microsomes by LC-MS/MS analysis

Adenosine receptor A2a [3] = target: T2, Adenosine receptor A2a (Homo sapiens, UniProt P29274); assay: Displacement of [3H][…] from human adenosine A2A receptor expressed in HEK293 cells; format: cell-based
T2 sequence (P29274 whole entry): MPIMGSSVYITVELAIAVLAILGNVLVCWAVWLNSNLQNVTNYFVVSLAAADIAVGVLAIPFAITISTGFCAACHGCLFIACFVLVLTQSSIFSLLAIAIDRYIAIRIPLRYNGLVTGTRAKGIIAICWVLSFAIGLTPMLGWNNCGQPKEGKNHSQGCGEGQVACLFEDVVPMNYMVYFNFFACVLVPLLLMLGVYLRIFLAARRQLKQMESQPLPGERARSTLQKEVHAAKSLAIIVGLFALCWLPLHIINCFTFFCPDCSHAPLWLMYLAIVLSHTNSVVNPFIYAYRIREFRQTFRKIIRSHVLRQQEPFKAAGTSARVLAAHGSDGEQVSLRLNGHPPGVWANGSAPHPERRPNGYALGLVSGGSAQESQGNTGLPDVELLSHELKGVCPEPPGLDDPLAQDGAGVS

Adenosine receptor A1 = target: T3, Adenosine receptor A1 (Homo sapiens, UniProt P30542); assay: Displacement of [3H]DPCPX from human adenosine A1 receptor expressed in HEK293 cells; format: cell-based
T3 sequence (P30542 whole entry): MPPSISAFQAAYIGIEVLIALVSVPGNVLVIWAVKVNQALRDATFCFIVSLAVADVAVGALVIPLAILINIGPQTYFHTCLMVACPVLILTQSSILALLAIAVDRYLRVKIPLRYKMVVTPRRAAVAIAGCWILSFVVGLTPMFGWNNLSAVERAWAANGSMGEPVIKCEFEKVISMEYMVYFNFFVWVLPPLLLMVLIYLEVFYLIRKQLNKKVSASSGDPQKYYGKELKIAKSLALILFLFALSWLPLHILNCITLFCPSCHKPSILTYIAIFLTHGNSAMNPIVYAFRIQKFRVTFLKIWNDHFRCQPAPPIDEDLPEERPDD

[4] = Metabolic stability in rat liver microsomes assessed as intrinsic clearance by LC-MS/MS analysis; format: ADME, Microsome
Adenosine receptor A2a [5] = target: T2, Adenosine receptor A2a; assay: Antagonist activity at human adenosine A2A receptor expressed in CHO cells assessed as inhibition of CGS-21680-induced cAMP production; format: functional, cell-based
Rattus norvegicus [6] = species: Rattus norvegicus; assay: Inhibition of haloperidol-induced catalepsy in rat assessed as minimal effective dose; format: functional; settings: read-out: MED
Rattus norvegicus [7] = assay: Inhibition of haloperidol-induced catalepsy in rat at 10 mg/kg, po after 2 hrs; format: functional; parameters: scale not given: the % may be the effect or the level left
[8] = Drug concentration in rat brain at 10 mg/kg, po after 2 hrs; format: ADME, organism-based; parameters: dose 10 mg/kg, route oral; settings: read-out: Drug uptake
[9] = Plasma concentration in rat at 10 mg/kg, po after 2 hrs; format: ADME, organism-based; parameters: dose 10 mg/kg, route oral
Adenosine receptor A2a [10] = target: Adenosine receptor A2a (Rattus norvegicus, UniProt P30543); assay: Displacement of [3H][…] from rat adenosine A2A receptor expressed in CHO cells; format: cell-based
Chain of Adenosine receptor A2a (Rattus norvegicus, UniProt P30543) (P30543 whole entry): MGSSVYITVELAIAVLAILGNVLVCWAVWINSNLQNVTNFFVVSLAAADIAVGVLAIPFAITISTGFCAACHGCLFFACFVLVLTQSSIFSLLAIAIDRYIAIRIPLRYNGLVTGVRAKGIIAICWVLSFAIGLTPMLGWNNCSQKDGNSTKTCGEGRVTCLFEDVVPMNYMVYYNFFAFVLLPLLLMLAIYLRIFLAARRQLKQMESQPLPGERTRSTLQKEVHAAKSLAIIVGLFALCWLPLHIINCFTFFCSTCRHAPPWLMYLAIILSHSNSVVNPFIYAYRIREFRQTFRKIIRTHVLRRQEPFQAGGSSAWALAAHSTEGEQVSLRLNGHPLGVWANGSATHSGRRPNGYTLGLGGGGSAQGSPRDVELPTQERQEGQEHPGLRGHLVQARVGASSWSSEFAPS

[11] = Lipophilicity, log D at pH 7.4; format: physicochemical; settings: buffer
[12] = Dissociation constant, pKa of the compound; format: physicochemical
Rattus norvegicus [13] = assay: Inhibition of haloperidol-induced catalepsy in rat at 30 mg/kg, po after 2 hrs; format: functional
[14] = AUC ((0 to 24 hrs)) in dog at 30 mg/kg, po; format: ADME, organism-based, Canis lupus familiaris; parameters: time < 24 hr, dose 30 mg/kg, route oral; settings: plasma
Liver microsomes = assay: Induction of glutathione adducts formation in human liver microsomes; parameters: species or system Microsome
[15] = Solubility at pH 3.7; format: physicochemical; settings: buffer
[16] = AUC ((0 to 24 hrs)) in mouse at 300 mg/kg, po; format: ADME, organism-based; parameters: time < 24 hr, dose 300 mg/kg, route oral; settings: plasma
Rattus norvegicus [17] = assay: Potentiation of L-dopa-induced rotational behavior in unilaterally 6-hydroxydopamine-lesioned po dosed Wistar rat pretreated 30 mins before L-dopa challenge measured over 5 hrs; format: functional, organism-based
Rattus norvegicus [18] = assay: Potentiation of L-dopa-induced rotational behavior in unilaterally 6-hydroxydopamine-lesioned po dosed Wistar rat assessed as minimal effective dose pretreated 30 mins before L-dopa challenge measured over 5 hrs; format: functional; settings: read-out: MED
Rattus norvegicus [19] = assay: Inhibition of haloperidol-induced catalepsy in rat at 1 mg/kg, po; format: functional, organism-based; parameters: dose 1 mg/kg
[20] = Aqueous solubility in phosphate-buffered saline at pH 7.4; format: physicochemical
[21] = target: Voltage-gated inwardly rectifying potassium channel KCNH2 (Homo sapiens, UniProt Q12809); assay: Inhibition of human ERG by electrophysiology assay
Chain of Voltage-gated inwardly rectifying potassium channel KCNH2 (Q12809 whole entry): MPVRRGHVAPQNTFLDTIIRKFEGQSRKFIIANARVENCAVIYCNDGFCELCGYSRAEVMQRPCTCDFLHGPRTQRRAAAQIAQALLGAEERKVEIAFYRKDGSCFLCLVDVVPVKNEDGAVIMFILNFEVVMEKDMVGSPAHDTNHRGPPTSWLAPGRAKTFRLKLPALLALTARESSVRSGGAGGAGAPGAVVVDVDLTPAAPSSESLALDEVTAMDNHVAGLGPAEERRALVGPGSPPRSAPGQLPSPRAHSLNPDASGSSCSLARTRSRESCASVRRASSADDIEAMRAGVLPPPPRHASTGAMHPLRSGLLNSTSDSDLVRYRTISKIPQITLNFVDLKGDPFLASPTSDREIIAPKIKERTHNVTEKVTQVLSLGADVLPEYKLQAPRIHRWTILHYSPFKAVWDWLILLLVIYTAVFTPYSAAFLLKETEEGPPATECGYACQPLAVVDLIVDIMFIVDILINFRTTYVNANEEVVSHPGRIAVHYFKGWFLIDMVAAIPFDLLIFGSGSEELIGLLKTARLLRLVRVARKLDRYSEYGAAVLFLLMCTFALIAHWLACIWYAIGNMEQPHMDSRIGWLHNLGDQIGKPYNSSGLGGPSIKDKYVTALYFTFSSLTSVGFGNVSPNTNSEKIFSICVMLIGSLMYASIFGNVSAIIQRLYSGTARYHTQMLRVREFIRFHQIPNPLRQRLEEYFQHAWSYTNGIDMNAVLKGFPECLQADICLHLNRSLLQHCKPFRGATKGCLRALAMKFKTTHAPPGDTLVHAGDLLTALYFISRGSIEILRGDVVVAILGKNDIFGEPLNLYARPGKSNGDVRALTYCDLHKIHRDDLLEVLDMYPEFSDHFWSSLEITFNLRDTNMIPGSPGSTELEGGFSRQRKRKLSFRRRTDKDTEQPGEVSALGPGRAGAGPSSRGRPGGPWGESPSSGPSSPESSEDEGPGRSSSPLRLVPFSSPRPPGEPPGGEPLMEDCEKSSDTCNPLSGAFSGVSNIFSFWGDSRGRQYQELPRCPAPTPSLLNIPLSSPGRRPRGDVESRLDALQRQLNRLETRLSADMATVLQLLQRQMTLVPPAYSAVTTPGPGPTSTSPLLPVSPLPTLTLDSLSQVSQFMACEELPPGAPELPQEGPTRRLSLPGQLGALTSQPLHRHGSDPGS

Cytochrome P450 3A4 [22] = target: T1, Cytochrome P450 3A4; assay: Inhibition of recombinant CYP3A4-catalyzed dealkylation of BFC assessed as formation of 7HFC by microplate fluorescence technique; format: ADME; settings: recombinant enzyme
[23] = Permeability across MDCK cell membrane by cell-based MDR assay; format: ADME, Canis lupus familiaris; settings: dog, MDCK-MDR1; read-out: permeability

SMILES	CLint scaled [1]	Ratio Ki (Homo sapiens)	IC50 (Cytochrome P450 3A4 [2])	Ki (Adenosine receptor A2a [3])	Ki (Adenosine receptor A1)	CLint scaled [4]	IC50 (Adenosine receptor A2a [5])	concentration at 2 h [8]	concentration at 2 h [9]	Ki (Adenosine receptor A2a [10])	pKa [12]	other results
CC(=O)Nc1cc(-c2cccc(N3CCCOCC3)n2)nc(-n2nc(C)cc2C)n1	94 mL/min/kg	121	> 20000 nM	2.3 nM	280 nM	1000 mL/min/kg						
CC(=O)Nc1cc(-c2cccc(N)n2)nc(-n2nc(C)cc2C)n1		57	> 20000 nM	7.9 nM	440 nM							
CCC(=O)Nc1cc(-c2cncc(OC)c2)nc(-n2nc(C)cc2C)n1	29 mL/min/kg	39	17000 nM	1.8 nM	70 nM	110 mL/min/kg	31 nM	1380 ng/g	860 ng/mL	21 nM	3.6	minimal effective dose (Rattus norvegicus [6]): 1 mg/kg; Activity (Rattus norvegicus [7]): 69%; logD [11]: 2.8
CC(=O)Nc1cc(-c2cccc(N3CCCCC3)n2)nc(-n2nc(C)cc2C)n1		54		0.56 nM	31 nM							
CC(=O)Nc1cc(-c2cncc(O)c2)nc(-n2nc(C)cc2C)n1	41 mL/min/kg	67	18000 nM	2.9 nM	195 nM	140 mL/min/kg	64 nM	154 ng/g	264 ng/mL	32 nM		Activity (Rattus norvegicus [13]): inactive; logD [11]: 2.4
COC1CCN(c2cccc(-c3cc(NC(C)=O)nc(-n4nc(C)cc4C)n3)n2)CC1	41 mL/min/kg			0.44 nM	85 nM	540 mL/min/kg						AUC(0-t) at 24 h [14]: 3400 ng·h/mL; Activity (Liver microsomes): Not Active; minimal effective dose (Rattus norvegicus [6]): 1 mg/kg; solubility [15]: 1000 µg/mL (≈ 2370 µM); Activity (Rattus norvegicus [7]): 88%; AUC(0-t) at 24 h [16]: 25700 ng·h/mL; Activity (Rattus norvegicus [17]): Dose-dependent effect; minimal effective dose (Rattus norvegicus [18]): 3 mg/kg; Activity (Rattus norvegicus [19]): Active
CC(=O)Nc1cc(-c2cc(N3CCOCC3)ccn2)nc(-n2nc(C)cc2C)n1		53		87 nM	4600 nM							
CC(=O)Nc1cc(-c2cccc(N3CCOCC3)n2)nc(-n2nc(C)cc2C)n1	3 mL/min/kg	155	> 20000 nM	0.83 nM	130 nM	25 mL/min/kg	13 nM	170 ng/g	150 ng/mL	10 nM	2.9	minimal effective dose (Rattus norvegicus [6]): 3 mg/kg; Activity (Rattus norvegicus [7]): 55%; solubility [20]: 140 µg/mL (≈ 356 µM); Activity ([21]; human): Not Active; Activity (Cytochrome P450 3A4 [22]): Not Active
CC(=O)Nc1cc(-c2cccc(N3CCN(C)CC3)n2)nc(-n2nc(C)cc2C)n1	3 mL/min/kg	175	> 20000 nM	0.71 nM	120 nM	25 mL/min/kg	7 nM	91 ng/g	53 ng/mL	7 nM	7.6	solubility [20]: 240 µg/mL (≈ 590 µM); Papp [23]: 15.4 ×10⁻⁶ cm/s; IC50 [21]: 540 nM; Activity (Rattus norvegicus [13]): inactive
COCCOc1cncc(-c2cc(NC(C)=O)nc(-n3nc(C)cc3C)n2)c1	3 mL/min/kg			3.1 nM	110 nM	43 mL/min/kg						
CC(=O)Nc1cc(-c2ccnc(N3CCOCC3)c2)nc(-n2nc(C)cc2C)n1		48		12 nM	580 nM							
COc1cncc(-c2cc(NC(=O)CN3CCOCC3)nc(-n3nc(C)cc3C)n2)c1	3 mL/min/kg	235	> 20000 nM	4 nM	940 nM	150 mL/min/kg	49 nM			30 nM	5.3	Activity (Rattus norvegicus [13]): inactive; logD [11]: 2.4
CC(=O)Nc1cc(-c2cccnc2)nc(-n2nc(C)cc2C)n1		18	> 20000 nM	120 nM	2100 nM							
